Measurements as given in patent publication US7553864B2, “Compounds for the treatment of inflammatory disorders and microbial diseases” (Schering Corporation, priority 2005, dated 2009).

These compounds were tested on LpxC enzyme (assay: LpxC enzyme assay (RapidFire high-throughput mass spectrometry)). Details: concentration 0.10 (unit not given).
Type: biochemical
Procedure: The standard LpxC assay consists of 0.2 nM LpxC enzyme, 1.0 μM UDP-3-O—(R-3-hydroxymyristoyl)-N-acetylglucosamine, and test compound, in assay buffer and 2% DMSO. Assay buffer is comprised of 25 mM HEPES, pH 7.3, 150 mM NaCl, 2.0 mM DTT, and 0.01% BSA. The enzyme reaction is carried out in a 96-well assay plate, in a final volume of 102 μL. Solutions of test compounds are prepared in 100% DMSO. Reaction additions, in order, are (1) 2.0 μL compound solution, (2) 80 μL of assay buffer, (3) 10 μL of 10 μM UDP-3-O—(R-3-hydroxymyristoyl)-N-acetylglucosamine (in assay buffer) and, (4) 10 μL of LpxC enzyme (20 nM in assay buffer) to initiate the reaction. In positive control reactions, addition (1) has 2.0 μL of 100% DMSO (without compound); these reactions are used as the total signal (TSB) value. Reactions are incubated at room temperature for 60 minutes when 10 μL of 1 N HCl is added to stop the reaction. The plate is shaken by hand for 10 seconds to ensure complete quenching. Assay plates are sealed with foil tape, and stored at −80° C. for 24-48 hr prior to analysis.
The concentrations of substrate and product in the reaction mixtures are determined with BioTrove's proprietary RapidFire™ high-throughput mass spectrometry (HTMS). Assay mixtures are partially purified with reverse phase chromatography, where they are washed with water containing 5 mM ammonium formate and eluted onto the mass spectrometer in 80% acetonitrile, 20% water, and 5 mM ammonium formate. The mass spectrometry peak areas of the substrate and product are measured to determine the concentration of these analytes. The assay signal is the percentage of substrate that is converted to product. Percent inhibition, % I, in test samples is determined from the following equation: […]

| Compound | LpxC enzyme assay rating (% inhibition at indicated concentrations) |
| --- | --- |
| CNC(=O)[C@H](O)[C@@H](O)C(=O)Nc1ccc(C#Cc2ccccc2)cc1 [Compound 25] | C (less than 10% inhibition) |
| CNC(=O)[C@H](O)[C@@H](O)C(=O)n1ccc2cc(C#Cc3ccccc3)ccc21 [Compound 26] | C (less than 10% inhibition) |
| CNC(=O)[C@H](O)[C@@H](O)C(=O)Nc1ccc(-c2ccccc2)cc1 [Compound 27] | C (less than 10% inhibition) |
| CNC(=O)[C@H](O)[C@@H](O)C(=O)Nc1ccc(-c2ccc(C(F)(F)F)cc2)cc1 [Compound 28] | C (less than 10% inhibition) |

Same assay, conditions: concentration 0.20 (unit not given)

| Compound | LpxC enzyme assay rating (% inhibition at indicated concentrations) |
| --- | --- |
| CNC(=O)[C@H](O)[C@@H](O)C(=O)Nc1ccc(C#Cc2ccccc2)cc1 [Compound 25] | C (less than 10% inhibition) |
| CNC(=O)[C@H](O)[C@@H](O)C(=O)n1ccc2cc(C#Cc3ccccc3)ccc21 [Compound 26] | C (less than 10% inhibition) |
| CNC(=O)[C@H](O)[C@@H](O)C(=O)Nc1ccc(-c2ccccc2)cc1 [Compound 27] | C (less than 10% inhibition) |
| CNC(=O)[C@H](O)[C@@H](O)C(=O)Nc1ccc(-c2ccc(C(F)(F)F)cc2)cc1 [Compound 28] | C (less than 10% inhibition) |

Same assay, conditions: concentration 0.39 (unit not given)

| Compound | LpxC enzyme assay rating (% inhibition at indicated concentrations) |
| --- | --- |
| CNC(=O)[C@H](O)[C@@H](O)C(=O)Nc1ccc(C#Cc2ccccc2)cc1 [Compound 25] | C (less than 10% inhibition) |
| CNC(=O)[C@H](O)[C@@H](O)C(=O)n1ccc2cc(C#Cc3ccccc3)ccc21 [Compound 26] | C (less than 10% inhibition) |
| CNC(=O)[C@H](O)[C@@H](O)C(=O)Nc1ccc(-c2ccccc2)cc1 [Compound 27] | C (less than 10% inhibition) |
| CNC(=O)[C@H](O)[C@@H](O)C(=O)Nc1ccc(-c2ccc(C(F)(F)F)cc2)cc1 [Compound 28] | C (less than 10% inhibition) |

Same assay, conditions: concentration 0.78 (unit not given)

| Compound | LpxC enzyme assay rating (% inhibition at indicated concentrations) |
| --- | --- |
| CNC(=O)[C@H](O)[C@@H](O)C(=O)Nc1ccc(C#Cc2ccccc2)cc1 [Compound 25] | C (less than 10% inhibition) |
| CNC(=O)[C@H](O)[C@@H](O)C(=O)n1ccc2cc(C#Cc3ccccc3)ccc21 [Compound 26] | C (less than 10% inhibition) |
| CNC(=O)[C@H](O)[C@@H](O)C(=O)Nc1ccc(-c2ccccc2)cc1 [Compound 27] | C (less than 10% inhibition) |
| CNC(=O)[C@H](O)[C@@H](O)C(=O)Nc1ccc(-c2ccc(C(F)(F)F)cc2)cc1 [Compound 28] | C (less than 10% inhibition) |

Same assay, conditions: concentration 1.56 (unit not given)

| Compound | LpxC enzyme assay rating (% inhibition at indicated concentrations) |
| --- | --- |
| CNC(=O)[C@H](O)[C@@H](O)C(=O)Nc1ccc(C#Cc2ccccc2)cc1 [Compound 25] | C (less than 10% inhibition) |
| CNC(=O)[C@H](O)[C@@H](O)C(=O)n1ccc2cc(C#Cc3ccccc3)ccc21 [Compound 26] | C (less than 10% inhibition) |
| CNC(=O)[C@H](O)[C@@H](O)C(=O)Nc1ccc(-c2ccccc2)cc1 [Compound 27] | C (less than 10% inhibition) |
| CNC(=O)[C@H](O)[C@@H](O)C(=O)Nc1ccc(-c2ccc(C(F)(F)F)cc2)cc1 [Compound 28] | C (less than 10% inhibition) |

Same assay, conditions: concentration 3.13 (unit not given)

| Compound | LpxC enzyme assay rating (% inhibition at indicated concentrations) |
| --- | --- |
| CNC(=O)[C@H](O)[C@@H](O)C(=O)Nc1ccc(C#Cc2ccccc2)cc1 [Compound 25] | C (less than 10% inhibition) |
| CNC(=O)[C@H](O)[C@@H](O)C(=O)n1ccc2cc(C#Cc3ccccc3)ccc21 [Compound 26] | C (less than 10% inhibition) |
| CNC(=O)[C@H](O)[C@@H](O)C(=O)Nc1ccc(-c2ccccc2)cc1 [Compound 27] | B (10-30% inhibition) |
| CNC(=O)[C@H](O)[C@@H](O)C(=O)Nc1ccc(-c2ccc(C(F)(F)F)cc2)cc1 [Compound 28] | C (less than 10% inhibition) |

Same assay, conditions: concentration 6.25 (unit not given)

| Compound | LpxC enzyme assay rating (% inhibition at indicated concentrations) |
| --- | --- |
| CNC(=O)[C@H](O)[C@@H](O)C(=O)Nc1ccc(C#Cc2ccccc2)cc1 [Compound 25] | C (less than 10% inhibition) |
| CNC(=O)[C@H](O)[C@@H](O)C(=O)n1ccc2cc(C#Cc3ccccc3)ccc21 [Compound 26] | C (less than 10% inhibition) |
| CNC(=O)[C@H](O)[C@@H](O)C(=O)Nc1ccc(-c2ccccc2)cc1 [Compound 27] | B (10-30% inhibition) |
| CNC(=O)[C@H](O)[C@@H](O)C(=O)Nc1ccc(-c2ccc(C(F)(F)F)cc2)cc1 [Compound 28] | C (less than 10% inhibition) |

Same assay, conditions: concentration 12.50 (unit not given)

| Compound | LpxC enzyme assay rating (% inhibition at indicated concentrations) |
| --- | --- |
| CNC(=O)[C@H](O)[C@@H](O)C(=O)Nc1ccc(C#Cc2ccccc2)cc1 [Compound 25] | B (10-30% inhibition) |
| CNC(=O)[C@H](O)[C@@H](O)C(=O)n1ccc2cc(C#Cc3ccccc3)ccc21 [Compound 26] | B (10-30% inhibition) |
| CNC(=O)[C@H](O)[C@@H](O)C(=O)Nc1ccc(-c2ccccc2)cc1 [Compound 27] | B (10-30% inhibition) |
| CNC(=O)[C@H](O)[C@@H](O)C(=O)Nc1ccc(-c2ccc(C(F)(F)F)cc2)cc1 [Compound 28] | B (10-30% inhibition) |

Same assay, conditions: concentration 25 (unit not given)

| Compound | LpxC enzyme assay rating (% inhibition at indicated concentrations) |
| --- | --- |
| CNC(=O)[C@H](O)[C@@H](O)C(=O)Nc1ccc(C#Cc2ccccc2)cc1 [Compound 25] | C (less than 10% inhibition) |
| CNC(=O)[C@H](O)[C@@H](O)C(=O)n1ccc2cc(C#Cc3ccccc3)ccc21 [Compound 26] | C (less than 10% inhibition) |
| CNC(=O)[C@H](O)[C@@H](O)C(=O)Nc1ccc(-c2ccccc2)cc1 [Compound 27] | B (10-30% inhibition) |
| CNC(=O)[C@H](O)[C@@H](O)C(=O)Nc1ccc(-c2ccc(C(F)(F)F)cc2)cc1 [Compound 28] | C (less than 10% inhibition) |

Same assay, conditions: concentration 50 (unit not given)

| Compound | LpxC enzyme assay rating (% inhibition at indicated concentrations) |
| --- | --- |
| CNC(=O)[C@H](O)[C@@H](O)C(=O)Nc1ccc(C#Cc2ccccc2)cc1 [Compound 25] | C (less than 10% inhibition) |
| CNC(=O)[C@H](O)[C@@H](O)C(=O)n1ccc2cc(C#Cc3ccccc3)ccc21 [Compound 26] | B (10-30% inhibition) |
| CNC(=O)[C@H](O)[C@@H](O)C(=O)Nc1ccc(-c2ccccc2)cc1 [Compound 27] | B (10-30% inhibition) |
| CNC(=O)[C@H](O)[C@@H](O)C(=O)Nc1ccc(-c2ccc(C(F)(F)F)cc2)cc1 [Compound 28] | C (less than 10% inhibition) |
